The results in this text go back to patent publication US20060167298A1, “Sulfated diglyceride derivatives, salts thereof, and processes for their preparation” (priority 2005, published 2006).

Data set [1] can be described thus: Surface tension of aqueous solution at 25° C. The format is physicochemical.
Data set [2] is described as follows: Foam test: solution shaken in a graduated cylinder. The format is physicochemical. On the procedure:
Dioctanoyl glyceride (6.88 grams; 0.02 mole), sulfamic acid (2.14 gram; 0.022 mole) and ammonium sulfamate (0.34 gram; 0.00298 mole) were heated with stirring at 120-125° C. for 3 hours. The reaction mixture was a somewhat viscous brown liquid. The reaction mixture was treated with water to make a 10% solution by weight, and centrifuged to recover unreacted diglyceride.

[3] abbreviates: 20 ml of the 0.1% solution shaken in a 100 ml graduated cylinder for 20 full cycles.
[4] abbreviates: 0.1% by weight aqueous solution of the reaction mixture.
Where [5] appears, read: 0.12% aqueous solution of the product in distilled water.

What is called surface tension is the force per length acting along the surface.

As to “Mixed Morpholinium, Ammonium Salt of Sulfated Dihexanoyl Glyceride [Example 3]”, in data set [1] (0.44% aqueous solution of the reaction mixture), the “surface tension at 25° C.” value is 36.5 mN/m.
In the case of `CCCCCCCC(=O)OCC(COS(=O)(=O)O)OC(=O)CCCCCCC.N` (centres unmarked) [Example 1 (ammonium salt), Sulfated Dioctanoyl Glyceride], in data set [2] (setting [3]), the foam persistence entry was “one hour or more” and the foam produced was 45 mL. In addition, in data set [1] (setting [4]), the “surface tension at 25° C.” value is given as 25.4 mN/m.
For the molecule “Sodium Salt of Sulfonated Didecanoyl Glyceride [Example 4]”, the “surface tension at 25° C.” value in data set [1] (0.1 g sample of reaction mixture dissolved in distilled water, neutralized to pH about 8 with NaOH) worked out at 25.9 mN/m.
Turning to `CCCCCC(=O)OCC(COS(=O)(=O)O)OC(=O)CCCCC.N` (centres unmarked) [Example 2, Ammonium Salt of Sulfated Dihexanoyl Glyceride], the “surface tension at 25° C.” value in data set [1] (0.4% by weight aqueous solution of the reaction mixture) turned out to be 31.9 mN/m.
Turning to “Mixed Sodium and Ammonium Salt of Sulfated Dihexanoyl Glyceride [Example 6 II]”, the “surface tension at 25° C.” value in data set [1] (0.42% (by weight) solution of the reaction mixture, diluted from 10% solution (pH about 9) after centrifugation) was 35.0 mN/m.
Take `CCCCCC(=O)OCC(COS(=O)(=O)O)OC(=O)CCCCC.N` (centres unmarked) [Example 6 I, Ammonium Salt of Sulfated Dihexanoyl Glyceride]: the “surface tension at 25° C.” value in data set [1] (0.42% aqueous solution of the product) is 35.6 mN/m.
Regarding “Sodium Salt of Sulfated Dioctanoyl Glyceride [Example 5]”, the “foaming (observed)” value in data set [2] (setting [5]) is “foam very well”. In data set [1] (setting [5]), the “surface tension at 25° C.” value turned out to be 26.8 mN/m.
Consider `CCCCCCCC(=O)OCC(COS(=O)(=O)O)OC(=O)CCCCCCC.N` (centres unmarked) [Example 1 (sodium salt), Sulfated Dioctanoyl Glyceride], for which the “surface tension at 25° C.” value in data set [1] (setting [4]) turned out to be 26.3 mN/m.
